These results are taken from ChEMBL document CHEMBL1157368, “Mass spectrometry-based systems approach for identification of inhibitors of Plasmodium falciparum fatty acid synthase” (Antimicrob Agents Chemother, 2007).

Active and inactive are the calls of the source. The rule behind the calls is not given here.

The target of assay [1] is T1, Fatty acid synthase (Plasmodium falciparum) (UniProt Q965D7).
T1 sequence (whole entry): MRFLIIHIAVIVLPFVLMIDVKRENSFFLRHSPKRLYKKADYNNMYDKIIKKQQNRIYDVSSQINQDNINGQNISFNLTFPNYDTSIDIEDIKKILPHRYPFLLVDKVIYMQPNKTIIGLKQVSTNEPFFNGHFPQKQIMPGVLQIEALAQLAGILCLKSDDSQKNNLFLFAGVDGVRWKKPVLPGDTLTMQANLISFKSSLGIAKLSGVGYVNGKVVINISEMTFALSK
In words: Inhibition of Plasmodium falciparum FabZ assessed as trans-2-octenoyl-acyl carrier protein level by MALDI-TOF mass spectrometry.

Assay [2] relates to Plasmodium falciparum. In words: Antiparasitic activity against Plasmodium falciparum. Format: functional, organism-based.
The subject of assay [3] is Plasmodium falciparum. Kind of assay: Inhibition of Plasmodium falciparum FabB/FabF assessed as C6-acyl carrier protein level by MALDI-TOF mass spectrometry.
Assay [4] has as its target T2, Enoyl-acyl-carrier protein reductase (Plasmodium falciparum, UniProt Q965D5).
T2 sequence (Q965D5 whole entry): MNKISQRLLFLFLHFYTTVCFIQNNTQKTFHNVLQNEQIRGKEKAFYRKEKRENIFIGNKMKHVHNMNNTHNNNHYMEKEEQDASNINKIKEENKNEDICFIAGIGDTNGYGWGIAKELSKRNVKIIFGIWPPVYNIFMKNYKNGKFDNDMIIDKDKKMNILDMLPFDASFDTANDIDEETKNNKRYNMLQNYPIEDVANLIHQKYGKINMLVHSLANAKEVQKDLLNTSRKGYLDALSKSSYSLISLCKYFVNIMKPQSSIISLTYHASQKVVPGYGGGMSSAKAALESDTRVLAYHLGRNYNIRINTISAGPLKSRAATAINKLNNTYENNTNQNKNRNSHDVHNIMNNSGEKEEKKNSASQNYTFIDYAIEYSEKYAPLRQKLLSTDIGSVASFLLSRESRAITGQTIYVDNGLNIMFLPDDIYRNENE
Kind of assay: Inhibition of Plasmodium falciparum recombinant FabI.

Assay [5] relates to Plasmodium falciparum. Kind of assay: Antiparasitic activity against Plasmodium falciparum in RBCs. It is filed as functional, organism-based.
A short description of assay [6]: Inhibition of Plasmodium falciparum recombinant FabI A217V mutant.

In the case of `O=C(CC(=O)C(F)(F)F)c1ccc([N+](=O)[O-])cc1`, in assay [1], the outcome was Active.

Take `Oc1ccc(Cl)cc1Oc1ccc(Cl)c2cccnc12`: in assay [1], the outcome was Active.

Take `C/C=C/C/C=C/CCC(=O)[C@H]1O[C@H]1C(N)=O` [CERULENIN]: in the assay on Plasmodium falciparum [2], the IC50 (usually the concentration needed to halve the response being measured) was 20 µM. Also, the result in the assay on Plasmodium falciparum [3] was Active.

As for `Oc1cc(Cl)ccc1Oc1ccc(Cl)cc1Cl` [TRICLOSAN], the IC50 in assay [4] amounted to 0.07 µM; in the assay on Plasmodium falciparum [5] it was 0.7 µM. Also, the Ki (in general, a measure of affinity in units of concentration, obtained from inhibition or displacement) in assay [6] was 0.232 µM.
